Laboratory results reported in PMC8948676, “Dihydropyridines Potentiate ATP-Induced Currents Mediated by the Full-Length Human P2X5 Receptor” (Molecules, 2022).

Assays:
[1] = biological target: T1, full-length human P2X5 receptor (hP2X5^FL) (Homo sapiens, UniProt Q93086, F216L/F232L); assay: cell-based; design: gene P2RX5
[2] = biological target: T1, full-length human P2X5 receptor (hP2X5^FL); assay: two-microelectrode voltage clamp, Xenopus laevis oocytes; potentiation of ATP-induced current at […]; assay type: cell-based; design: gene P2RX5; His-hP2X5^FL, full-length 444 residues including exon 10 (residues 328–349), N-terminal hexahistidine tag; homotrimer
[3] = biological target: T1, full-length human P2X5 receptor (hP2X5^FL); assay: two-microelectrode voltage clamp, Xenopus laevis oocytes (agonist concentration-response); assay type: cell-based; design: gene P2RX5; His-hP2X5^FL, full-length 444 residues including exon 10 (residues 328–349), N-terminal hexahistidine tag; homotrimer

T1 sequence (Q93086 whole entry F216L/F232L, the tested form may be a part): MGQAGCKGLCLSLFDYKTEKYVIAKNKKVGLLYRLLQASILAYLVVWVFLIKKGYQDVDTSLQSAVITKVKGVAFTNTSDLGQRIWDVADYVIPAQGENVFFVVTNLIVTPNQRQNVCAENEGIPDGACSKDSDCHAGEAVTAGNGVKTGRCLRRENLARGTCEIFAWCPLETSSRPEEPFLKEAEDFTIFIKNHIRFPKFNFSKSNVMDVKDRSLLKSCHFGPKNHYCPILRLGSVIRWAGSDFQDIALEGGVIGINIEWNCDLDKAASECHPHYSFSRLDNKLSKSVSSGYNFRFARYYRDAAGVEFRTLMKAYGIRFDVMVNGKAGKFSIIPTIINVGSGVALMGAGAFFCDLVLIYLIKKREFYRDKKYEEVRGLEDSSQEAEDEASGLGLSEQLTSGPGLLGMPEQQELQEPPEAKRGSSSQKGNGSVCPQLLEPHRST

Compound `Nc1ncnc2c1ncn2[C@@H]1O[C@H](COP(=O)(O)OP(=O)(O)OP(=O)(O)O)[C@@H](O)[C@H]1O` [ATP] has an EC50 [1] of ~39 µM.
`COC(=O)C1=C(C)NC(C)=C(C(=O)OC(C)C)C1c1cccc2nonc12` (stereo not drawn) [isradipine] was tested, and the “two-microelectrode voltage clamp, Xenopus laevis oocytes; potentiation of ATP-in” value [2] was “In contrast, isradipine and nimodipine stimulated the ATP-induced currents”.
`Nc1ncnc2c1ncn2[C@@H]1O[C@H](COP(=O)(O)OP(=O)(O)OP(=O)(O)O)[C@@H](OC(=O)c2ccc(C(=O)c3ccccc3)cc2)[C@H]1O` [BzATP] was tested, and the “two-microelectrode voltage clamp, Xenopus laevis oocytes (agonist concentration-” value [3] was “BzATP, displayed a higher affinity for hP2X5^FL than ATP but a lower efficacy”.
